These results are taken from patent US20060281768A1, “THIENOPYRIMIDINE AND THIENOPYRIDINE KINASE MODULATORS” (priority 2005, published 2006).

Some results are limits rather than exact numbers.

For one assay, the system named is MV4-11 cells. The assay is described as follows: Growth inhibition of MV4-11 cells (CellTiterGlo). It is filed as cell-based. The note with it: Homo sapiens, 72 hours, uncertainty +20%. As for the experimental part: FLT3 specific growth inhibition was measured in the leukemic cell line MV4-11 (ATCC Number: CRL-9591). […] MV4-11 cells cannot grow and survive without active FLT31TD.
To measure proliferation inhibition by test compounds the luciferase based CellTiterGlo reagent (Promega) was used. Cells are plated at 10,000 cells per well in 100ul of in RPMI media containing penn/strep, 10% FBS and lng/ml GM-CSF or 1 ng/ml IL-3 for MV4-11 and Baf3 cells respectively.
Compound dilutions or 0.1% DMSO (vehicle control) are added to cells and the cells are allowed to grow for 72 hours at standard cell growth conditions (37° C., 5% CO2). Total cell growth is quantified as the difference in luminescent counts (relative light units, RLU) of cell number at Day 0 compared to total cell number at Day 3 (72 hours of growth and/or compound treatment). One hundred percent inhibition of growth is defined as an RLU equivalent to the Day 0 reading. Zero percent inhibition is defined as the RLU signal for the DMSO vehicle control at Day 3 of growth. All data points are an average of triplicate samples. […] Inhibition and IC50 data analysis was done with GraphPad Prism using a non-linear regression fit with a multiparamater, sigmoidal dose-response (variable slope) equation.
MV-411 cells expressed the FLT3 internal tandem duplication mutation, and thus were entirely dependent upon FLT3 activity for growth. […] In contrast, the Baf3 cell proliferations is driven by the cytokine IL-3 and these cells are used as a non-specific toxicity control for test compounds.
A general note: Cellular ATP, detected with luciferase, serves as a proxy for viable cell number.

The target of a further assay is T1, FLT3 571-993 (Homo sapiens, UniProt P36888).
T1 construct: 10 nM FLT3 571-993, 20 ug/mL poly Glu4Tyr
T1 sequence (P36888 571-993): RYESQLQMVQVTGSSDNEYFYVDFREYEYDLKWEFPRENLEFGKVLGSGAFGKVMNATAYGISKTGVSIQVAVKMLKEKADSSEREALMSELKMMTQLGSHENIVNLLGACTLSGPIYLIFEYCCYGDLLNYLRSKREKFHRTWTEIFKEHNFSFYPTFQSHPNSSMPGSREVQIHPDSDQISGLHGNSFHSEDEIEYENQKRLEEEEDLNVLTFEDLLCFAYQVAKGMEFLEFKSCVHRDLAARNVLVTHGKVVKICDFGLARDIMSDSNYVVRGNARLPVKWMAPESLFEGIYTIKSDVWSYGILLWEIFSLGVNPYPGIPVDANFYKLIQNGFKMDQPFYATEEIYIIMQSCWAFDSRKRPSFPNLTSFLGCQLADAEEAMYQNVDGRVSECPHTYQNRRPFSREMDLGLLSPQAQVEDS
The assay is described as follows: FLT3 Fluorescence Polarization Kinase Assay. Format: biochemical. The following applies: 10 nM FLT3 571-993, 150 uM ATP, 30 minutes; uncertainty +10%. As for the experimental part:
The FLT3 FP assay utilizes the fluorescein-labeled phosphopeptide and the anti-phosphotyrosine antibody included in the Panvera Phospho-Tyrosine Kinase Kit (Green) supplied by Invitrogen. When FLT3 phosphorylates poly Glu4Tyr, the fluorescein-labeled phosphopeptide is displaced from the anti-phosphotyrosine antibody by the phosphorylated poly Glu4Tyr, thus decreasing the FP value. The FLT3 kinase reaction is incubated at room temperature for 30 minutes under the following conditions: 10 nM FLT3 571-993, 20 ug/mL poly Glu4Tyr, 150 uM ATP, 5mM MgCl2, 1% compound in DMSO. The kinase reaction is stopped with the addition of EDTA. The fluorescein-labeled phosphopeptide and the anti-phosphotyrosine antibody are added and incubated for 30 minutes at room temperature.
All data points are an average of triplicate samples. Inhibition and IC50 data analysis was done with GraphPad Prism using a non-linear regression fit with a multiparamater, sigmoidal dose-response (variable slope) equation.
In general terms: In fluorescence polarisation assays a small probe gives low polarisation when free and higher when bound to something large.

With `CC(C)c1ccc(NC(=O)OC2CCN(c3ncnc4sccc34)CC2)cc1` [Compound 1, (4-Isopropyl-phenyl)-carbamic acid 1-thieno[2,3-d]pyrimidin-4-yl-piperidin-4-yl ester], the IC50 – broadly, the midpoint of a concentration-inhibition curve – with MV4-11 cells amounted to 7.2 µM; against FLT3 571-993, 102 nM.

With `CC(C)Oc1ccc(NC(=O)OC2CCN(c3ncnc4sccc34)CC2)cc1` [Compound 2, (4-Isopropoxy-phenyl)-carbamic acid 1-thieno[2,3-d]pyrimidin-4-yl-piperidin-4-yl ester], the values for the IC50 with MV4-11 cells and against FLT3 571-993 were over 10 µM and 2090 nM, respectively.

Regarding `CC(C)Oc1ccc(NC(=O)OC2CCN(c3ncnc4sccc34)C2)cc1` (stereo not drawn) [Compound 4, (4-Isopropoxy-phenyl)-carbamic acid 1-thieno[2,3-d]pyrimidin-4-yl-pyrrolidin-3-yl ester], the IC50 in the assay on MV4-11 cells is over 10 µM; against FLT3 571-993, 761 nM.

Consider `CC(C)Oc1ccc(NC(=O)NC2CCN(c3ncnc4ccsc34)C2)cc1` (stereo not drawn) [Compound 12, 1-(4-Isopropoxy-phenyl)-3-(1-thieno[3,2-d]pyrimidin-4-yl-pyrrolidin-3-yl)-urea], for which the IC50 turned out to be 2.5 µM in the assay on MV4-11 cells and 296 nM at FLT3 571-993.

Consider `CC(C)c1ccc(NC(=O)OC2CCN(c3ncnc4ccsc34)CC2)cc1` [Compound 7, (4-Isopropyl-phenyl)-carbamic acid 1-thieno[3,2-d]pyrimidin-4-yl-piperidin-4-yl ester], for which the half-maximal inhibitory concentration (IC50) worked out at 4.3 µM in the assay on MV4-11 cells and 140 nM against FLT3 571-993.

Consider `CC(C)Oc1ccc(NC(=O)OC2CCN(c3ncnc4ccsc34)C2)cc1` (stereo not drawn) [Compound 6, (4-Isopropoxy-phenyl)-carbamic acid 1-thieno[3,2-d]pyrimidin-4-yl-pyrrolidin-3-yl ester], for which the IC50 with MV4-11 cells was 6.5 µM; against FLT3 571-993, 208 nM.

Take `O=C(Nc1ccc(Oc2ccccc2)cc1)NC1CCN(c2ncnc3ccsc23)CC1` [Compound 22, 1-(4-Phenoxy-phenyl)-3-(1-thieno [3,2-d]pyrimidin-4-yl-piperidin-4-yl)-urea]: the half-inhibitory concentration (IC50) with MV4-11 cells turned out to be 3.8 µM.

Compound `O=C(Nc1ccc(N2CCCC2)cc1)NC1CCN(c2ncnc3ccsc23)CC1` [Compound 23, 1-(4-Pyrrolidin-1-yl-phenyl)-3-(1-thieno [3,2-d]pyrimidin-4-yl-piperidin-4-yl)-urea] had an IC50 with MV4-11 cells of 3.9 µM.

As to `O=C(Nc1ccc(N2CCOCC2)cc1)OC1CCN(c2ncnc3ccsc23)C1` (stereo not drawn) [Compound 28, (4-Morpholin-4-yl-phenyl)-carbamic acid 1-thieno[3,2-d]pyrimidin-4-yl-pyrrolidin-3-yl ester], the IC50 in the assay with MV4-11 cells stood at 2.1 µM.

Consider `CC(C)Oc1ccc(NC(=O)NC2CCN(c3ncnc4sccc34)C2)cc1` (stereo not drawn) [Compound 10, 1-(4-Isopropoxy-phenyl)-3-(1-thieno[2,3-d]pyrimidin-4-yl-pyrrolidin-3-yl)-urea], for which the IC50 in the assay on MV4-11 cells was 3.6 µM; against FLT3 571-993 it was 365 nM.

`O=C(Nc1ccc(N2CCOCC2)cc1)NC1CCN(c2ncnc3ccsc23)C1` (stereo not drawn) [Compound 14, 1-(4-Morpholin-4-yl-phenyl)-3-(1-thieno [3,2-d]pyrimidin-4-yl-pyrrolidin-3-yl)-urea] yielded an IC50 in the assay on MV4-11 cells of over 5 µM.

On to `CC(C)Oc1ccc(NC(=O)OC2CCN(c3ncnc4ccsc34)CC2)cc1` [Compound 8, (4-Isopropoxy-phenyl)-carbamic acid 1-thieno[3,2-d]pyrimidin-4-yl-piperidin-4-yl ester], for which the IC50 amounted to 3.6 µM in the assay on MV4-11 cells and 3030 nM against FLT3 571-993.

The compound `O=C(Nc1ccc(N2CCOCC2)cc1)NC1CCN(c2ncnc3ccsc23)CC1` [Compound 24, 1-(4-Morpholin-4-yl-phenyl)-3-(1-thieno[3,2-d]pyrimidin-4-yl-piperidin-4-yl)-urea] returned an IC50 with MV4-11 cells of over 5 µM.

Consider `O=C(Nc1ccc(OC2CCC2)nc1)NC1CCN(c2ncnc3ccsc23)CC1` [Compound 20, 1-(6-Cyclobutoxy-pyridin-3-yl)-3-(1-thieno [3,2-d]pyrimidin-4-yl-piperidin-4-yl)-urea], for which the midpoint of inhibition in the assay with MV4-11 cells, the IC50, lay at 1.5 µM.

`O=C(Nc1ccc(C2CCCCC2)cc1)NC1CCN(c2ncnc3ccsc23)C1` (stereo not drawn) [Compound 16, 1-(4-Cyclohexyl-phenyl)-3-(1-thieno [3,2-d]pyrimidin-4-yl-pyrrolidin-3-yl)-urea] yielded an IC50 in the assay with MV4-11 cells of 5.2 µM.

On to `CC(C)c1ccc(NC(=O)OC2CCN(c3ncnc4sccc34)C2)cc1` (stereo not drawn) [Compound 3, (4-Isopropyl-phenyl)-carbamic acid 1-thieno[2,3-d]pyrimidin-4-yl-pyrrolidin-3-yl ester], for which the IC50 in the assay on MV4-11 cells was found to be 2.4 µM; against FLT3 571-993 it was 227 nM.

`O=C(Nc1ccc(Br)cc1)NC1CCN(c2ncnc3ccsc23)C1` (stereo not drawn) [Compound 17, 1-(4-Bromo-phenyl)-3-(1-thieno [3,2-d]pyrimidin-4-yl-pyrrolidin-3-yl)-urea]: in the assay on MV4-11 cells, the midpoint of inhibition, the IC50, lay at 1.9 µM.

Regarding `O=C(Nc1ccc(C2CCCCC2)cc1)NC1CCN(c2ncnc3ccsc23)CC1` [Compound 21, 1-(4-Cyclohexyl-phenyl)-3-(1-thieno [3,2-d]pyrimidin-4-yl-piperidin-4-yl)-urea], in the assay with MV4-11 cells, the IC50 was determined as 1.4 µM.
